We go through one compound from patent US20230192646A1, “DIHYDRO-CYCLOPENTA-ISOQUINOLINE DERIVATIVES” (UCB Biopharma SRL, priority 2019, published 2023).

The test deals with T1, IgE-Tb / sFcεR1α-AF488 (WT soluble IgE receptor FcεR1α) (Homo sapiens, UniProt P01854, N146Q/N252Q, form not given).
T1 construct: fused on or other part: LanthaScreen amine-reactive terbium chelate, chemically conjugated (about 4 Tb per IgE-Fc); a label, not a fusion
In words: In vitro FRET assay of IgE-Tb binding to sFcεR1α-AF488 (WT), 18 hours incubation (examples 17-35, 48-52 and 63). The note with it: 0.75 nM IgE-Tb, 0.9 nM sFcεR1α-AF488; 18 hours at room temperature; read-out: FRET IC50 range. The procedure: 86 nmoles of IgE-Fc(N265Q, N371Q) (Young et al., 1995) at 172 μM in 100 mM NaHCO3, pH 9.5 was added to 1 mg of LanthaScreen™ Amine Reactive Tb Chelate (ThermoFisher catalogue number PV3583) and incubated for 16 hours at 20° C. The material was then buffer exchanged into Phosphate Buffered Saline (being, 137 mM NaCl, 2.7 mM KCl, 10 mM Na2HPO4, 1.8 mM K2HPO4, pH 7.4) and the material quantified and the degree of Tb conjugation determined by measuring the absorption at 280 nm and 343 nm.
To a solution of 1.32 μmoles WT FcεR1α, at 377 μM, in 100 mM NaOAc pH 5.5, was slowly added 50 mM sodium periodate (70 μL) in 100 mM NaOAc, pH 5.5, with gentle mixing, to give a final concentration of 1 mM. […]
175 nmoles of protein was added to 1 mg of Alexa Fluor™ 488 hydrazide (Invitrogen) and incubated for 18 hours at 22° C. with gentle mixing. […] The material was quantified, and the degree of Alexa Fluor™ 488 conjugation determined by measuring the absorption at 280 nm and 497 nm. […]
The aim was to measure binding of IgE-Tb to receptor, and the inhibition thereof by compounds, using an in vitro Fluorescence Resonance Energy Transfer (FRET) Assay. […]
Measurement of FRET for each well was carried out by exciting at 337 nm and measuring emission at 490/520 nm using a PHERAstar FSX plate reader (BMG Labtech). FRET ratio was calculated as follows: […]

T1 sequence (P01854 whole entry C105A/N146Q/N252Q, form open, the tested form may be a part): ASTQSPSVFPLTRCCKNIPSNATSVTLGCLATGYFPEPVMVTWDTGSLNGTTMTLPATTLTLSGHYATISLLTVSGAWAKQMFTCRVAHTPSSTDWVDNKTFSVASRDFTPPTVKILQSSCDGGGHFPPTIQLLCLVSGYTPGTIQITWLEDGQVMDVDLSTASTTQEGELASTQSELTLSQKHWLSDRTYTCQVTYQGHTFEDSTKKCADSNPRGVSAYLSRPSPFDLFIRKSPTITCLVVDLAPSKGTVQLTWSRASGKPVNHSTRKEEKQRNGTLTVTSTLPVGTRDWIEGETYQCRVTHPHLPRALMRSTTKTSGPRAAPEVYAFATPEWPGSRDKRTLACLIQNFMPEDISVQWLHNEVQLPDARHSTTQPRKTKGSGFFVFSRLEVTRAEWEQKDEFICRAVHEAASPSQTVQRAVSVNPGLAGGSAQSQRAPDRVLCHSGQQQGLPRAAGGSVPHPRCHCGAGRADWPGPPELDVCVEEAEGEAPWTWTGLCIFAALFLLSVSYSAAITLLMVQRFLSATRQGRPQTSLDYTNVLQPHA

Regarding `COc1ccc(CNC(=O)N[C@H]2C[C@H](Nc3cncc(OC)c3)c3c2cc(S(=O)(=O)NCC(C)C)c2cc(C4CC4)ncc32)cc1` (racemic) [Example 18, 1-[(4-methoxyphenyl)methyl]-3-[trans-(7R,9RS)-3-cyclopropyl-9-[(5-methoxypyridin-3-yl)amino]-5-(2-methylpropylsulfamoyl)-8,9-dihydro-7H-cyclopenta[h]isoquinolin-7-yl]urea], the IC50 (as a rule, the midpoint of a concentration-inhibition curve) was in the range of 1 to 10 nM.
